Assay results reported in article PMC5798851, “The structure of FIV reverse transcriptase and its implications for non-nucleoside inhibitor resistance” (PLoS Pathogens, 2018).
Like-named read-outs stand apart in the source and are kept apart here.

How the values were obtained:
mutated fRT (FIVm) = biological target: T1, mutated fRT (FIVm) (Feline immunodeficiency virus, UniProt P16088, A293E/G294T/K290I/R289S/R297I); experiment: DNA-dependent DNA polymerization activity assay, mutant FIV RT; type: biochemical, feline immunodeficiency virus (FIV); settings: 0.15 μM RT, 30 minutes at 37°C
T1 construct: The p66 subunit (residues 1–554) was cloned into pET22b; p51 subunit (residues 1–430) in pET28b (kan resistance, Novagen) with a thrombin-cleavable His-tag at the N-terminus; His-tag (thrombin-cleavable) (N, cleaved yes); made in house; host or cells: E. coli ArcticExpress
Protocol: (§1) DNA-dependent DNA polymerization activity of RT enzymes was assessed using a DNA primer/template prepared by annealing of 70-mer ssDNA template with a complementary 25-mer ssDNA primer labeled with 6-FAM at 5’-end (Integrated DNA Technologies).
Reaction mixtures contained 100 mM Tris-HCl pH 7.5, 75 mM KCl, 0.5 mM dNTP mixture, 60 mM MgCl2, 5 mM DTT and 0.15 μM RT, 0.5 μM DNA substrate. Reactions were incubated for 30 minutes at 37°C and stopped using urea sample loading buffer and heating at 95°C for 10 minutes. Reaction products were resolved using denaturing urea polyacrylamide gel electrophoresis (S5B Fig). Percentage RT activities represent percentile of band-intensities of polymerized product divided by those of template/primer substrate.

[1] = test system: mutant fRT (FIVm; R133S, K134I, A137E, G138T and R141I in FIV p51); experiment: Microscale thermophoresis (MST) NNRTI binding affinity to p51-loop mutant FIV RT; design: species or system feline immunodeficiency virus (FIV); settings: MST; for binding affinity to mutated fRT as compared to HIV-1 RT: FIVm versus HIV-1 RT
Description: (§2) The two subunits of FIV RT (Petaluma) were subcloned into separate plasmids to facilitate site-specific mutagenesis. […] FIV RT mutant (FIVm) was generated by introducing the specific mutations into the p51 subunit using QuikChange Kit (Agilent Technologies Genomics). HIV-1 RT construct, containing p66 and protease coding regions in pT5M plasmid, was a generous gift of Prof. Stephen H. Hughes (National Cancer Institute- Frederick, MD, USA).
(§3) RT proteins were labeled with Monolith NT protein labeling kit BLUE-NHS (NanoTemper Technologies) and eluted in microscale thermophoresis (MST) buffer (50 mm Tris-HCl, pH 7.0, 300 mM NaCl and 0.05% Tween-20).

FIV RT (fRT) = biological target: T2, FIV RT (fRT) (Feline immunodeficiency virus, UniProt P16088); experiment: Microscale thermophoresis (MST) NNRTI binding affinity to wild type FIV RT
T2 construct: The p66 subunit (residues 1–554) was cloned into pET22b; p51 subunit (residues 1–430) in pET28b (kan resistance, Novagen) with a thrombin-cleavable His-tag at the N-terminus; His-tag (thrombin-cleavable) (N, cleaved yes); made in house; host or cells: E. coli ArcticExpress
Protocol: as §3

HIV-1 RT [2] = biological target: T3, HIV-1 RT (Human immunodeficiency virus type 1 group M subtype B, UniProt P03366); experiment: biochemical; type: binding
T3 construct: HIV-1 RT construct, containing p66 and protease coding regions in pT5M plasmid; His-tag (implied by cobalt-resin purification); made in house; host or cells: E. coli BL21(DE3)

[3] = biological target: T4, mutant fRT (FIVm; R133S, K134I, A137E, G138T and R141I in FIV p51) (Feline immunodeficiency virus, UniProt P16088, A293E/G294T/K290I/R289S/R297I); experiment: Microscale thermophoresis (MST) NNRTI binding affinity to p51-loop mutant FIV RT
T4 construct: The p66 subunit (residues 1–554) was cloned into pET22b; p51 subunit (residues 1–430) in pET28b (kan resistance, Novagen) with a thrombin-cleavable His-tag at the N-terminus; His-tag (thrombin-cleavable) (N, cleaved yes); made in house; host or cells: E. coli ArcticExpress
Description: as §2, §3

HIV-1 RT [4] = biological target: T3, HIV-1 RT; type: biochemical
Protocol: as §1
Reactions were incubated for 30 minutes at 37°C and stopped using urea sample loading buffer and heating at 95°C for 10 minutes. Reaction products were resolved using denaturing urea polyacrylamide gel electrophoresis (S5B Fig). Percentage RT activities represent percentile of band-intensities of polymerized product divided by those of template/primer substrate.

| SMILES | effect on DNA polymerization activity of the mutated fRT (in words) (mutated fRT (FIVm)) | binding affinity to mutated fRT as compared to HIV-1 RT [1] | binding to fRT (in words) (FIV RT (fRT)) | Kd (HIV-1 RT [2]) | Kd [3] | inhibition of HIV-1 RT DNA polymerization activity (in words) (HIV-1 RT [4]) | Kd (HIV-1 RT [2]; MST, mean ±SD, read-out: Kd, binding to HIV-1 RT) | binding affinity to mutated fRT as compared to fRT ([1]; FIVm versus wild type fRT) | Kd (FIV RT (fRT); mean ±SD) | inhibition of HIV-1 RT DNA polymerization activity (in words) (HIV-1 RT [4]; 0.15 μM RT, 30 minutes at 37°C) |
| --- | --- | --- | --- | --- | --- | --- | --- | --- | --- | --- |
| O=C1Nc2ccc(Cl)cc2[C@@](C#CC2CC2)(C(F)(F)F)O1 [EFZ, Efavirenz] | none of the three inhibitors EFZ, DLV or RPV reduced the activity | comparable affinities | fail to bind | – | – | – | – | – | – | – |
| CC(C)Nc1cccnc1N1CCN(C(=O)c2cc3cc(NS(C)(=O)=O)ccc3[nH]2)CC1 [DLV, Delavirdine] | none of the three inhibitors EFZ, DLV or RPV reduced the activity | twice the affinity | fail to bind | 0.617 ± 0.1 µM | 0.227 ± 0.071 µM | potently inhibiting | – | – | – | – |
| Cc1cc(/C=C/C#N)cc(C)c1Nc1ccnc(Nc2ccc(C#N)cc2)n1 [RPV, Rilpivirine] | none of the three inhibitors EFZ, DLV or RPV reduced the activity | comparable affinities | able to bind to fRT with comparable affinity to HIV-1 RT | – | 0.368 ± 0.06 µM | – | 0.539 ± 0.025 µM | twice the affinity | 0.796 ± 0.076 µM | potently inhibiting |
